Measurements as given in US20150368195A1, “INDOLINE COMPOUNDS FOR TREATMENT AND/OR PREVENTION OF INFLAMMATION DISEASES” (Taipei Medical University, priority 2014, published 2015).

Key:
[1] = test system: collagen I; test: TGF-β-induced collagen I production, Western blot; type: cell-based, human; settings: WI-38 lung fibroblasts; 1 μM pretreatment; TGF-β 10 ng/mL 24 h
Protocol: (§1) Western blot analysis was performed. First, WI-38 lung fibroblasts were incubated with different concentrations of MPT0E028 (0.01, 0.03, 0.1, 0.3, or 1 μM) (FIG. 10A) or MPT0G009 (0.01, 0.03, 0.1, 0.3, or 1 μM) (FIG. 10B) for 30 min before and during incubation for 2 h with TGF-β (10 ng/mL). WI-38 lung fibroblasts were incubated with 1 μM MPT0E028 and MPT0G009 for 30 min and following another incubation for 2 h with 1 U/ml thrombin (FIG. 10C) and 10 nM ET-1 (FIG. 10D). The collagen I production from WI-38 lung fibroblasts stimulated by 10 ng/mL TGF-β for 24 h was inhibited with 1 μM MPT0E028 and MPT0G009 pretreatment (FIG. 10E).
WI-38 cells, a normal human embryonic lung fibroblast cell line, were obtained from American Type Culture Collection (Manassas, Va.). […]
Western blot analyses were performed as described previously (Chen B C, Chang Y S, Kang J C, Hsu M J, Sheu J R, Chen T L, et al. Peptidoglycan induces nuclear factor-kappaB activation and cyclooxygenase-2 expression via Ras, Raf-1, and ERK in RAW 264.7 macrophages. J Biol Chem 2004; 279:20889-97). […] The immunoreactivity was detected using enhanced chemiluminescence (ECL) following the manufacturer's instructions. Quantitative data were obtained using a computing densitometer with scientific imaging systems (Kodak, Rochester, N.Y.). […]

[2] = test system: CTGF; test: pro-fibrogenic mediator-induced CTGF production, Western blot; type: cell-based, human; settings: WI-38 lung fibroblasts
Protocol: as §1
WI-38 cells, a normal human embryonic lung fibroblast cell line, were obtained from American Type Culture Collection (Manassas, Va.). Cells were grown in MEM nutrient mixture, containing 10% FCS, 2 mM L-glutamine, 0.1 mM NEAA, 1 mM sodium pyruvate, 50 U/ml penicillin G, and 100 μg/ml streptomycin, in a humidified 37° C. incubator with 5% CO2 Cells were used between passages 18 and 30 for all experiments. After reaching confluence, cells were seeded onto 6-cm dishes for immunoblotting.
Western blot analyses were performed as described previously (Chen B C, Chang Y S, Kang J C, Hsu M J, Sheu J R, Chen T L, et al. Peptidoglycan induces nuclear factor-kappaB activation and cyclooxygenase-2 expression via Ras, Raf-1, and ERK in RAW 264.7 macrophages. J Biol Chem 2004; 279:20889-97). Briefly, WI-38 lung fibroblasts were cultured in 6-cm dishes. After reaching confluence, cells were pretreated with specific inhibitors (E028 and G009) as indicated for 30 min, and then treated with the vehicle (H2O) or 10 ng/ml TGF-β for 2 h (CTGF assay) or 24 h (collagen I assay). Whole-cell lysates ([…]) were subjected to 12% (CTGF) or 8% (collagen I) SDS-PAGE, and transferred onto a polyvinylidene difluoride membrane which was then incubated in TBST buffer (150 mM NaCl, 20 mM Tris-HCl, and 0.02% Tween 20; pH 7.4) containing 5% BSA. Proteins were visualized by specific primary antibodies and then incubated with HRP-conjugated secondary antibodies. The immunoreactivity was detected using enhanced chemiluminescence (ECL) following the manufacturer's instructions. Quantitative data were obtained using a computing densitometer with scientific imaging systems (Kodak, Rochester, N.Y.).
To determine whether the inhibitory effects of MPT0E028 and MPT0G009 on pro-fibrogenic mediators (TGF-β, thrombin, and ET-1) were related to the modulation of CTGF and Collagen I production, Western blot analysis was performed. First, WI-38 lung fibroblasts were incubated with different concentrations of MPT0E028 (0.01, 0.03, 0.1, 0.3, or 1 μM) (FIG. 10A) or MPT0G009 (0.01, 0.03, 0.1, 0.3, or 1 μM) (FIG. 10B) for 30 min before and during incubation for 2 h with TGF-β (10 ng/mL). […] Furthermore, we examined the effects of MPT0E028 and MPT0G009 on other pro-fibrogenic mediators. As shown in FIGS. 10C and 10D, WI-38 lung fibroblasts were incubated with 1 μM MPT0E028 and MPT0G009 for 30 min and following another incubation for 2 h with 1 U/ml thrombin (FIG. 10C) and 10 nM ET-1 (FIG. 10D).

## O=C(/C=C/c1ccc2c(c1)CCN2S(=O)(=O)c1ccccc1)NO [MPT0E028]
[1]
  collagen I production: inhibited
[2]; 1 μM, 10 nM ET-1 2 h
  ET-1-induced CTGF expression: inhibited
[2]; 1 μM, 1 U/ml thrombin 2 h
  thrombin-induced CTGF expression: inhibited
[2]; 0.01-1 μM, TGF-β 10 ng/mL 2 h
  TGF-β-induced CTGF production: significantly inhibited
